According to PubChem BioAssay (NCI):
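Cultured in 96-well plates, cells were exposed to test compound for 48 hours across five concentrations. GI50 = concentration required for 50% inhibition of growth. TGI: concentration producing complete growth inhibition.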

Columns and labels:
Test in all cases: NCI-60 cell line screen, 48 h
786-0 renal = test system: 786-0 renal
A498 renal = test system: A498 renal
A549 NSCLC = test system: A549 NSCLC
ACHN renal = test system: ACHN renal
BT-549 breast = test system: BT-549 breast
CAKI-1 renal = test system: CAKI-1 renal
CCRF-CEM leukemia = test system: CCRF-CEM leukemia
COLO 205 colon = test system: COLO 205 colon
DU-145 prostate = test system: DU-145 prostate
EKVX NSCLC = test system: EKVX NSCLC
HCC-2998 colon = test system: HCC-2998 colon
HCT-116 colon = test system: HCT-116 colon
HCT-15 colon = test system: HCT-15 colon
HL-60(TB) leukemia = test system: HL-60(TB) leukemia
HOP-62 NSCLC = test system: HOP-62 NSCLC
HOP-92 NSCLC = test system: HOP-92 NSCLC
HS 578T breast = test system: HS 578T breast
HT29 colon = test system: HT29 colon
IGROV1 ovarian = test system: IGROV1 ovarian
K-562 leukemia = test system: K-562 leukemia
KM12 colon = test system: KM12 colon
LOX IMVI melanoma = test system: LOX IMVI melanoma
M14 melanoma = test system: M14 melanoma
MALME-3M melanoma = test system: MALME-3M melanoma
MCF7 breast = test system: MCF7 breast
MDA-MB-231 breast = test system: MDA-MB-231 breast
MDA-MB-435 = test system: MDA-MB-435
MOLT-4 leukemia = test system: MOLT-4 leukemia

## CN(C)CCN(C)c1ccc2ncc(C#Cc3cncc(C(=O)Nc4ccc(CN5CCN(C)CC5)c(C(F)(F)F)c4)c3)n2n1
786-0 renal
  GI50: 6900 nM
  TGI: 13500 nM
A498 renal
  GI50: 6050 nM
  TGI: 12200 nM
A549 NSCLC
  GI50: 947 nM
  TGI: 2150 nM
ACHN renal
  GI50: 2510 nM
  TGI: 8720 nM
BT-549 breast
  GI50: 3370 nM
  TGI: 9440 nM
CAKI-1 renal
  GI50: 4000 nM
  TGI: 10400 nM
CCRF-CEM leukemia
  GI50: 1080 nM
  TGI: 2910 nM
COLO 205 colon
  GI50: 1210 nM
  TGI: 6510 nM
DU-145 prostate
  GI50: 3540 nM
  TGI: 9900 nM
EKVX NSCLC
  GI50: 4810 nM
  TGI: 11200 nM
HCC-2998 colon
  GI50: 1000 nM
  TGI: 2080 nM
HCT-116 colon
  GI50: 1570 nM
  TGI: 6960 nM
HCT-15 colon
  GI50: 1140 nM
  TGI: 3140 nM
HL-60(TB) leukemia
  GI50: 1280 nM
  TGI: 2390 nM
HOP-62 NSCLC
  GI50: 3980 nM
  TGI: 10400 nM
HOP-92 NSCLC
  GI50: 1710 nM
  TGI: 8310 nM
HS 578T breast
  GI50: 1680 nM
  TGI: 9750 nM
HT29 colon
  GI50: 822 nM
  TGI: 1910 nM
IGROV1 ovarian
  GI50: 1590 nM
  TGI: 5700 nM
K-562 leukemia
  GI50: 22.7 nM
  TGI: 787 nM
KM12 colon
  GI50: 386 nM
  TGI: 4660 nM
LOX IMVI melanoma
  GI50: 750 nM
  TGI: 1420 nM
M14 melanoma
  GI50: 854 nM
  TGI: 1710 nM
MALME-3M melanoma
  GI50: 2700 nM
  TGI: 9710 nM
MCF7 breast
  GI50: 564 nM
  TGI: 1470 nM
MDA-MB-231 breast
  GI50: 889 nM
  TGI: 2170 nM
MDA-MB-435
  GI50: 2170 nM
  TGI: 8720 nM
MOLT-4 leukemia
  GI50: 863 nM
  TGI: 2620 nM
